Test results reported in ChEMBL document CHEMBL1201862, “PubChem BioAssay data set” (2004).
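Results reflect a 48-hour exposure of cells in 96-well plates to compound at five concentrations. GI50 marks 50% less growth.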 Active and inactive are the calls of the source. Rule as the data show it: active = GI50 up to about 1.1 µM and inactive = higher.

Assays:
Assay in all cases: DTP human tumour cell line panel, 48 h
[1] = test system: LXFL 529
[2] = test system: DMS-273
[3] = test system: RXF 631
[4] = test system: KM-20L2
[5] = test system: SNB-78
[6] = test system: HOP-18
[7] = test system: DMS-114
[8] = test system: BT-549
[9] = test system: Hs-578T

| Structure (SMILES) | GI50 [1] | GI50 [2] | GI50 [3] | GI50 [4] | GI50 [5] | GI50 [6] | GI50 [7] | GI50 [8] | GI50 [9] |
| --- | --- | --- | --- | --- | --- | --- | --- | --- | --- |
| COC(=O)C(C(=O)C(=O)Nc1c(Cl)cc([N+](=O)[O-])cc1Cl)c1csc(-n2nc(C3=CCCCC3)cc2-c2ccccc2)n1 (stereo unspecified) | 40.7 µM (inactive) | 74.5 µM (inactive) | 45.6 µM (inactive) | 29 µM (inactive) | 40 µM (inactive) | 10.3 µM (inactive) | – | – | – |
| CC(C)(C)N/N=C(\Cc1occc(=O)c1O)C(=O)Nc1ccc([N+](=O)[O-])cc1[N+](=O)[O-] | > 100 µM (inactive) | > 100 µM (inactive) | > 100 µM (inactive) | > 100 µM (inactive) | > 100 µM (inactive) | > 100 µM (inactive) | > 100 µM (inactive) | – | – |
| CC1(C)C2C=CC1C(=O)CC2 (stereo unspecified) | > 100 µM (inactive) | > 100 µM (inactive) | > 100 µM (inactive) | > 100 µM (inactive) | > 100 µM (inactive) | > 100 µM (inactive) | – | – | – |
| CCOC(=O)CCn1[nH]c(=O)c(Cl)c(Cl)c1=O | > 100 µM (inactive) | > 100 µM (inactive) | > 100 µM (inactive) | > 100 µM (inactive) | > 100 µM (inactive) | > 100 µM (inactive) | > 100 µM (inactive) | – | – |
| COC(=O)C1CCC2(CC1)NC(=O)NC2=O (stereo unspecified) | > 100 µM (inactive) | > 100 µM (inactive) | > 100 µM (inactive) | > 100 µM (inactive) | > 100 µM (inactive) | > 100 µM (inactive) | > 100 µM (inactive) | – | – |
| COc1ccc(-c2cc(-c3ccco3)c(C#N)c(=O)[nH]2)cc1 | 44 µM (inactive) | 31 µM (inactive) | > 100 µM (inactive) | > 100 µM (inactive) | > 100 µM (inactive) | 15.9 µM (inactive) | 79.6 µM (inactive) | – | – |
| CCCCCCCCSC(SCCCCCCCC)=C1C(=O)N(c2ccccc2)N=C1C | 43.4 µM (inactive) | 49.4 µM (inactive) | > 100 µM (inactive) | 55.7 µM (inactive) | > 100 µM (inactive) | 61.7 µM (inactive) | 28.4 µM (inactive) | – | – |
| O=C(O/N=C1\CCCC\C1=C/c1ccccc1)c1ccc([N+](=O)[O-])cc1 | 54 µM (inactive) | > 100 µM (inactive) | > 100 µM (inactive) | > 100 µM (inactive) | > 100 µM (inactive) | > 100 µM (inactive) | 61.9 µM (inactive) | – | – |
| N#Cc1cnsc1 | > 100 µM (inactive) | > 100 µM (inactive) | > 100 µM (inactive) | > 100 µM (inactive) | > 100 µM (inactive) | > 100 µM (inactive) | > 100 µM (inactive) | – | – |
| O=C1CCC(c2nc3cc(Cl)ccc3o2)C(=O)N1 (stereo unspecified) | > 100 µM (inactive) | > 100 µM (inactive) | > 100 µM (inactive) | > 100 µM (inactive) | > 100 µM (inactive) | > 100 µM (inactive) | > 100 µM (inactive) | – | – |
| O=C(CCBr)N1CCN(C(=O)CCBr)CC1 [PIPOBROMAN] | 71.6 µM (inactive) | 28.8 µM (inactive) | 55.1 µM (inactive) | 119 µM (inactive) | 114 µM (inactive) | 121 µM (inactive) | 50.6 µM (inactive) | 61.8 µM (inactive) | 190 µM (inactive) |
| Sc1nnc(COc2ccc(Cl)cc2)o1 | > 100 µM (inactive) | > 100 µM (inactive) | > 100 µM (inactive) | > 100 µM (inactive) | > 100 µM (inactive) | > 100 µM (inactive) | > 100 µM (inactive) | – | – |
| CCCCCCCCCCNC1CC(OC2CC(O)(C(O)CO)Cc3c(O)c4c(c(O)c32)C(=O)c2c(OC)cccc2C4=O)OC(C)C1O (stereo unspecified) | 0.731 µM (active) | 1.79 µM (inactive) | 1.53 µM (inactive) | 1.69 µM (inactive) | 1.84 µM (inactive) | 1.87 µM (inactive) | 1.46 µM (inactive) | 1.7 µM (inactive) | 1.67 µM (inactive) |
| COC(=O)/C=C\C1C(C(=O)OC)C2(C(=O)OC)CCC1(C(=O)OC)N2 (stereo unspecified) | 6.75 µM (inactive) | 18.2 µM (inactive) | 20.8 µM (inactive) | 31.9 µM (inactive) | 10.2 µM (inactive) | 15.1 µM (inactive) | – | – | – |
| Cn1c(=O)nc2n(-c3ccc(O)cc3)c3ccccc3nc-2c1=O | > 100 µM (inactive) | 11.5 µM (inactive) | 63.5 µM (inactive) | 64.3 µM (inactive) | > 100 µM (inactive) | > 100 µM (inactive) | 22.5 µM (inactive) | – | – |
